# Measured values: patent publication US20090012103A1, “SUBSTITUTED HETEROCYCLIC COMPOUNDS” (priority 2007, published 2009)
# Where two headings read alike, the source gives them in different places.
# Biological target: wild-type human cardiac sodium channel, hNav1.5 (Homo sapiens, UniProt Q14524)
# Assay: Late INa screening assay (late sodium current, PatchXpress whole cell patch clamp)
# Type: cell-based
# Conditions: read-out: Late INa % blk
# Protocol: The late sodium current (Late INa) and peak sodium current (Peak INa) assays are performed on an automated electrophysiology platform, PatchXpress 7000A (MDS Analytical Technologies, Sunnyvale, Calif.), which uses the whole cell patch clamp technique to measure currents through the cell membrane of up to 16 cells at a time. The assay uses an HEK293 (human embryonic kidney) cell line heterologously expressing the wild-type human cardiac sodium channel, hNav1.5, purchased from Millipore (Billerica, Mass.). No beta subunits were coexpressed with the Na channel alpha subunit. […] Experiments are carried out at 24-27° C.
# For both the Late INa and Peak INa assays, series resistance compensation is set to 50% and whole-cell compensation is performed automatically. […] Currents through open sodium channels are automatically recorded and stored in the DataXpress2 database (MDS Analytical Technologies, Sunnyvale, Calif.). Analysis is performed using DataXpress2 analysis software and data are compiled in Excel.
# Compound stocks are routinely made in glass vials to 10 mM in dimethyl sulfoxide (DMSO). In some cases, when compounds are not soluble in DMSO, they are made in 100% ethanol. Stocks are sonicated as necessary. The extracellular solution for screening Late INa is composed of: 140 mM NaCl, 4 mM KCl, 1.8 mM CaCl2, 0.75 mM MgCl2, and 5 mM HEPES with pH adjusted to 7.4 using NaOH. The extracellular solution for screening Peak INa is composed of: 20 mM NaCl, 120 mM N-methyl-D glucamine, 4 mM KCl, 1.8 mM CaCl2, 0.75 mM MgCl2, and 5 mM HEPES with pH adjusted to 7.4 using HCl. The intracellular solution used to perfuse the inside of the cells for both the Late INa and Peak INa assays contains: 120 mM CsF, 20 mM CsCl, 5 mM EGTA, 5 mM HEPES and pH adjusted to 7.4 with CsOH. Compounds are diluted in extracellular solution to 10 μM in glass vials and then transferred to glass well plates before robotic addition to the cells. The 0 Na extracellular solution used at the end of each experiment for the Late INa and Peak INa assays to measure baseline current contains: 140 mM N-methyl-D-glucamine; 4 mM KCl; 1.8 mM CaCl2; 0.75 mM MgCl2; 5 mM HEPES and pH was adjusted to 7.4 with HCl.
# For the Late INa assay, sodium channels are activated every 10 seconds (0.1 Hz) by depolarizing the cell membrane to −20 mV for 250 milliseconds (ms) from a holding potential of −120 mV.
# All compounds are tested to determine their activity in blocking the late sodium current. Late INa current is generated by adding 10 μM Tefluthrin (pyrethroid) to the extracellular solution while recording Na currents. […] For some experiments, 50 nM ATX II (sea anemone toxin), another late INa activator, was used to generate the late component. […] Baseline current in the absence of Na^+ ions is measured at the end of each experiment (after two additions of 0 Na solution-see above) and is used to calculate the percent block by compound.
# Sequence of wild-type human cardiac sodium channel, hNav1.5 (Q14524 whole entry): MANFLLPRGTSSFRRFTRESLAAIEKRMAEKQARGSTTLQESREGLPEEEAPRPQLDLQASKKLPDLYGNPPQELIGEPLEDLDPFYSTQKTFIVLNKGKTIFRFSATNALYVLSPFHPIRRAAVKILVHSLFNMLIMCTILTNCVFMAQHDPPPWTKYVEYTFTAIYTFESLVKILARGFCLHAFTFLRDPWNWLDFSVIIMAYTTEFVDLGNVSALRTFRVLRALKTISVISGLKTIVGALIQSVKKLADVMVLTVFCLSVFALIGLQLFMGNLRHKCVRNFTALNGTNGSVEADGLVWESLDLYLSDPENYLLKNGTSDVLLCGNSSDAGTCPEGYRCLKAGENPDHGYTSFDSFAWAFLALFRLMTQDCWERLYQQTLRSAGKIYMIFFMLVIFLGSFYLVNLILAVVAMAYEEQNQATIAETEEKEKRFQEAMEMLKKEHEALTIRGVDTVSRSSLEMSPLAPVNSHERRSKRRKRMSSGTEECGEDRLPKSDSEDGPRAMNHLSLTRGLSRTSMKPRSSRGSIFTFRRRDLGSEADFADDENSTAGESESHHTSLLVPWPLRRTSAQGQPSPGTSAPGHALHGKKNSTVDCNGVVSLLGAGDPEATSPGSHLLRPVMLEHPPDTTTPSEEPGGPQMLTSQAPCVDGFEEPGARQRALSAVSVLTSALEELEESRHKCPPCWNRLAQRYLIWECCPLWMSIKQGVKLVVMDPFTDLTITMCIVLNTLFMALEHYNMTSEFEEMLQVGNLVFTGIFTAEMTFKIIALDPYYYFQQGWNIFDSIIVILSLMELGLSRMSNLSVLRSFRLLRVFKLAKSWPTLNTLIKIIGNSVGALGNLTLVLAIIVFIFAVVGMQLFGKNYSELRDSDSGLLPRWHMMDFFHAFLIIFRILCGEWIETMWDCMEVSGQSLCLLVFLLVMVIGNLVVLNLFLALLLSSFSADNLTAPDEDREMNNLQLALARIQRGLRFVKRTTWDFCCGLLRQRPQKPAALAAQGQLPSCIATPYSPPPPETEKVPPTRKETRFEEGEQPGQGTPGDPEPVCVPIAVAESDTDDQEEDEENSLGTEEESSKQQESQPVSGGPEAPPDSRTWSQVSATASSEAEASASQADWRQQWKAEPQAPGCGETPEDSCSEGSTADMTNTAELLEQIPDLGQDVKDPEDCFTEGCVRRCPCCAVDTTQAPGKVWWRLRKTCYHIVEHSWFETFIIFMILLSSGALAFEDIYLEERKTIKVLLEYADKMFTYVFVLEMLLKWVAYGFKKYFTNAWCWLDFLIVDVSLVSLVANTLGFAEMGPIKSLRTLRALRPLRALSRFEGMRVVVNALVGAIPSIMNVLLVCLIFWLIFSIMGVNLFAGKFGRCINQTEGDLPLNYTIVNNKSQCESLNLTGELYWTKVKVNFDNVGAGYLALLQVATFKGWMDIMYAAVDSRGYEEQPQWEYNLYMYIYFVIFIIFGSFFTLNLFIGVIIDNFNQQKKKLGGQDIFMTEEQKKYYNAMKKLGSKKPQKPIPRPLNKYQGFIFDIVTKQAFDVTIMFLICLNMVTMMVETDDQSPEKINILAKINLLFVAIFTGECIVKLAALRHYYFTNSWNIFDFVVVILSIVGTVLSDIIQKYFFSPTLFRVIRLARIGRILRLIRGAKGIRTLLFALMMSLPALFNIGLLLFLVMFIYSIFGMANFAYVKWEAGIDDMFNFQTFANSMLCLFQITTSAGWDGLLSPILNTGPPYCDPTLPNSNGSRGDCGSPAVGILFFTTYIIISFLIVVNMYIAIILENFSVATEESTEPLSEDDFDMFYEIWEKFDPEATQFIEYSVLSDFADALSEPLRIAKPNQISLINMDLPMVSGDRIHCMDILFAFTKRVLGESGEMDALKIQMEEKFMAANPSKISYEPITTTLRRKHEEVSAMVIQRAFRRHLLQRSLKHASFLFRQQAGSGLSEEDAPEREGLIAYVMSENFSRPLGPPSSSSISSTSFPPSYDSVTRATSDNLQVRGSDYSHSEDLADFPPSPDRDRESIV
structure (smiles),measurement,setting,value
"CC1=C(C(=O)OC(C)C)C(c2cnn(-c3ccc(F)cc3)c2C)C(C(=O)OC(C)C)=C(C)N1 [PT-127, diisopropyl 4-(1-(4-fluorophenyl)-5-methyl-1H-pyrazol-4-yl)-2,6-dimethyl-1,4-dihydropyridine-3,5-dicarboxylate]",inhibition at 10 µM,compound at 10 μM,1.1%
"CCOC(=O)C1=C(C)Nc2[nH]ncc2C1c1cccc2ccccc12 (stereo not drawn) [PT-075, ethyl 6-methyl-4-(naphthalen-1-yl)-4,7-dihydro-1H-pyrazolo[3,4-b]pyridine-5-carboxylate]",inhibition at 10 µM,compound at 10 μM,26.5%
"Cc1nn(-c2ccccc2)c2c1C(c1cccc3ccccc13)C1=C(COC1=O)N2 (stereo not drawn) [PT-083, 3-methyl-4-(naphthalen-1-yl)-1-phenyl-7,8-dihydro-1H-furo[3,4-e]pyrazolo[3,4-b]pyridin-5(4H)-one]",inhibition at 10 µM,compound at 10 μM,30%
"CCOC(=O)C1=C(C)NC(C)=C(C(=O)OCC)C1c1ccc(OC)cc1F [PT-432, diethyl 4-(2-fluoro-4-methoxyphenyl)-2,6-dimethyl-1,4-dihydropyridine-3,5-dicarboxylate]",inhibition at 10 µM,compound at 10 μM,56.9%
"CCC(OC(=O)C1=C(C)Nc2nnnn2C1c1cccc2ccccc12)c1ccccc1 (stereo not drawn) [PT-063, 1-phenylpropyl 5-methyl-7-(naphthalen-1-yl)-4,7-dihydrotetrazolo[1,5-a]pyrimidine-6-carboxylate]",inhibition at 10 µM,compound at 10 μM,47.5%
"CC1=C(C(=O)OCc2ccccc2)C(c2ccccc2-c2cccc(C(=O)O)c2)C2=C(CCCC2=O)N1 (stereo not drawn) [PT-248, 2′-(3-(benzyloxycarbonyl)-2-methyl-5-oxo-1,4,5,6,7,8-hexahydroquinolin-4-yl)biphenyl-3-carboxylic acid]",inhibition at 10 µM,compound at 10 μM,27.2%
"CC1=C(C(=O)OCc2ccccc2)C(c2ccc(C(F)(F)F)cc2)n2nnnc2N1 (stereo not drawn) [PT-358, benzyl 5-methyl-7-(4-(trifluoromethyl)phenyl)-4,7-dihydrotetrazolo[1,5-a]pyrimidine-6-carboxylate]",inhibition at 10 µM,compound at 10 μM,7.4%
"CCOC(=O)C1=C(C)Nc2nnnn2C1c1ccccc1-c1ccc(C#N)cc1 (stereo not drawn) [PT-503, ethyl 7-(4′-cyanobiphenyl-2-yl)-5-methyl-4,7-dihydrotetrazolo[1,5-a]pyrimidine-6-carboxylate]",inhibition at 10 µM,compound at 10 μM,29.2%
"CCOC(=O)C1=C(C)NC(C)=C(C(=O)OCC)C1c1ccc(N(C)C)cc1[N+](=O)[O-] [PT-437, diethyl 4-(4-(dimethylamino)-2-nitrophenyl)-2,6-dimethyl-1,4-dihydropyridine-3,5-dicarboxylate]",inhibition at 10 µM,compound at 10 μM,43.1%
"O=C1OCc2nc3c(cnn3-c3ccccc3)c(-c3cccc4ccccc34)c21 [PT-302, 4-(naphthalen-1-yl)-1-phenyl-1H-furo[3,4-e]pyrazolo[3,4-b]pyridin-5(7H)-one]",inhibition at 10 µM,compound at 10 μM,50.4%
"COCCOC(=O)C1=C(C)NC2=C(C(=O)CC(C)(C)C2)C1c1ccc(Oc2ccccc2)cc1 (stereo not drawn) [PT-156, 2-methoxyethyl 2,7,7-trimethyl-5-oxo-4-(4-phenoxyphenyl)-1,4,5,6,7,8-hexahydroquinoline-3-carboxylate]",inhibition at 10 µM,compound at 10 μM,36.6%
"CC1=C(C(=O)OCc2ccc(Oc3ccccc3)cc2)C(c2cccc3ccccc23)n2nnnc2N1 (stereo not drawn) [PT-003, 4-phenoxybenzyl 5-methyl-7-(naphthalen-1-yl)-4,7-dihydrotetrazolo[1,5-a]pyrimidine-6-carboxylate]",inhibition at 10 µM,compound at 10 μM,14.5%
"COc1ccc(-c2ccc(COC(=O)C3=C(C)Nc4nnnn4C3c3cccc4ccccc34)cc2)cc1 (stereo not drawn) [PT-199, (4′-methoxybiphenyl-4-yl)methyl 5-methyl-7-(naphthalen-1-yl)-4,7-dihydrotetrazolo[1,5-a]pyrimidine-6-carboxylate]",inhibition at 10 µM,compound at 10 μM,20.3%
"CCOC(=O)C1=C(C)NC2=C(C(=O)CCC2(C)C)C1c1ccc(Cl)s1 (stereo not drawn) [PT-146, ethyl 4-(5-chlorothiophen-2-yl)-2,8,8-trimethyl-5-oxo-1,4,5,6,7,8-hexahydroquinoline-3-carboxylate]",inhibition at 10 µM,compound at 10 μM,31.2%
"CC1=C(C(=O)OCc2ccccc2)C(c2cccc(Oc3ccccc3)c2)n2nnnc2N1 (stereo not drawn) [PT-024, benzyl 5-methyl-7-(3-phenoxyphenyl)-4,7-dihydrotetrazolo[1,5-a]pyrimidine-6-carboxylate]",inhibition at 10 µM,,72.6%
"CC1(C)CC(=O)C2=C(C1)OC(N)=C(C#N)C2c1cccc(C(=O)O)c1 (stereo not drawn) [PT-098, 3-(2-amino-3-cyano-7,7-dimethyl-5-oxo-5,6,7,8-tetrahydro-4H-chromen-4-yl)benzoic acid]",inhibition at 10 µM,compound at 10 μM,-27.9%
"CC1=C(C(=O)OCc2ccccc2)C(c2ccc(C(F)(F)F)cc2C(F)(F)F)n2nnnc2N1 (stereo not drawn) [PT-384, benzyl 7-(2,4-bis(trifluoromethyl)phenyl)-5-methyl-4,7-dihydrotetrazolo[1,5-a]pyrimidine-6-carboxylate]",inhibition at 10 µM,compound at 10 μM,29.4%
"COc1cc([N+](=O)[O-])ccc1C1C(C(=O)OCc2ccccc2)=C(C)Nc2nnnn21 (stereo not drawn) [PT-395, benzyl 7-(2-methoxy-4-nitrophenyl)-5-methyl-4,7-dihydrotetrazolo[1,5-a]pyrimidine-6-carboxylate]",inhibition at 10 µM,compound at 10 μM,48.7%
"CC1=C(C(=O)OC2Cc3ccccc3C2)C(c2cccc3ccccc23)n2nnnc2N1 (stereo not drawn) [PT-260, 2,3-dihydro-1H-inden-2-yl 5-methyl-7-(naphthalen-1-yl)-4,7-dihydrotetrazolo[1,5-a]pyrimidine-6-carboxylate]",inhibition at 10 µM,compound at 10 μM,74.8%
"CCOC(=O)C1=C(C)Nc2[nH]ncc2C1c1cccc(Oc2ccccc2)c1 (stereo not drawn) [PT-470, ethyl 6-methyl-4-(3-phenoxyphenyl)-4,7-dihydro-1H-pyrazolo[3,4-b]pyridine-5-carboxylate]",inhibition at 10 µM,compound at 10 μM,26%
"CC1=C(C(=O)OCc2ccc(Cn3cccn3)cc2)C(c2ccccc2OCc2ccccc2)n2nnnc2N1 (stereo not drawn) [PT-282, 4-((1H-pyrazol-1-yl)methyl)benzyl 7-(2-(benzyloxy)phenyl)-5-methyl-4,7-dihydrotetrazolo[1,5-a]pyrimidine-6-carboxylate]",inhibition at 10 µM,compound at 10 μM,30.2%
"O=C1OCC2=C1C(c1cccc3ccccc13)c1cnn(-c3ccccc3)c1N2 (stereo not drawn) [PT-082, 4-(naphthalen-1-yl)-1-phenyl-7,8-dihydro-1H-furo[3,4-e]pyrazolo[3,4-b]pyridin-5(4H)-one]",inhibition at 10 µM,compound at 10 μM,43.1%
"CC1=C(C(=O)OCc2ccccc2)C(c2ccnc3ccccc23)n2nnnc2N1 (stereo not drawn) [PT-197, benzyl 5-methyl-7-(quinolin-4-yl)-4,7-dihydrotetrazolo[1,5-a]pyrimidine-6-carboxylate]",inhibition at 10 µM,compound at 10 μM,21.5%
"CC1=C(c2nnc(Cc3ccccc3)o2)C(c2cccc3ccccc23)n2nnnc2N1 (stereo not drawn) [PT-261, 2-benzyl-5-(5-methyl-7-(naphthalen-1-yl)-4,7-dihydrotetrazolo[1,5-a]pyrimidin-6-yl)-1,3,4-oxadiazole]",inhibition at 10 µM,compound at 10 μM,59.4%
"CC1=C(C(=O)OCc2ccccc2)C(c2ccccc2-c2cccc(C)c2)n2nnnc2N1 (stereo not drawn) [PT-350, benzyl 5-methyl-7-(3′-methylbiphenyl-2-yl)-4,7-dihydrotetrazolo[1,5-a]pyrimidine-6-carboxylate]",inhibition at 10 µM,compound at 10 μM,63.2%
"CC1=C(C(=O)OCc2ccccc2)C(c2ccc3ccccc3c2)C(C(=O)OCc2ccccc2)=C(C)N1 [PT-129, dibenzyl 2,6-dimethyl-4-(naphthalen-2-yl)-1,4-dihydropyridine-3,5-dicarboxylate]",inhibition at 10 µM,compound at 10 μM,17.6%
"CC1=C(C(=O)OCc2ccccc2)C(c2cccc3c2OCCO3)n2nnnc2N1 (stereo not drawn) [PT-036, benzyl 7-(2,3-dihydrobenzo[b][1,4]dioxin-5-yl)-5-methyl-4,7-dihydrotetrazolo[1,5-a]pyrimidine-6-carboxylate]",inhibition at 10 µM,compound at 10 μM,41%
"CC1=C(C(=O)OCc2ccccc2)C(c2cccc3ccccc23)n2nnnc2N1CC(=O)O (stereo not drawn) [PT-257, 2-(6-(benzyloxycarbonyl)-5-methyl-7-(naphthalen-1-yl)tetrazolo[1,5-a]pyrimidin-4(7H)-yl)acetic acid]",inhibition at 10 µM,compound at 10 μM,7.4%
"CC1=C(C(=O)N[C@H](C)c2ccccc2)C(c2cccc3ccccc23)n2nnnc2N1 (stereo partly drawn) [PT-070, 5-methyl-7-(naphthalen-1-yl)-N-((R)-1-phenylethyl)-4,7-dihydrotetrazolo[1,5-a]pyrimidine-6-carboxamide]",inhibition at 10 µM,compound at 10 μM,9.9%
"COCCOC(=O)C1=C(C)NC(C)=C(C(=O)OCCOC)C1c1sccc1Br [PT-125, bis(2-methoxyethyl) 4-(3-bromothiophen-2-yl)-2,6-dimethyl-1,4-dihydropyridine-3,5-dicarboxylate]",inhibition at 10 µM,compound at 10 μM,10.3%
